Test results reported in US7674595B1, “Solid state NMR method for screening cell membrane protein binding drug candidates” (priority 2006, dated 2010).

Columns and labels:
[1] = target: M2 Protein from Influenza A virus (Influenza A virus, UniProt P06821); assay type: binding; settings: spectra with AMT vs without AMT, FIG. 6
[2] = system: gramicidin A channel; assay: 17O solid-state NMR of 17O-[D-Leu10]-gA in AAO-aligned DMPC bilayers, reversible ion binding; settings: 2.4 M KCl, approx. double occupancy of K+ in the dimeric channel, channel perpendicular to B0, 19.6 T, 40° C., reversible by EDTA wash
Procedure: The ^17O-[D-Leu^10]-gA was prepared as described previously (29), resulting in material with 57% enrichment of ^17O isotope (H^172O from Cambridge Isotope Labs, Andover, Mass.). The dry peptide was codissolved with DMPC in a 1:16 molar ratio in benzene/ethanol (20:1 v/v) solvent (28) and pipetted onto the nanoporous support. The organic solution containing gA and DMPC was rapidly adsorbed. This commercial substrate, “20 nm” Anodisc® 13 membranes (Whatman International), is shaped as disks 13 mm in diameter that are approximately […] thick. For ^31P NMR experiments AAO disks were cut into strips less than 5 mm in width to fit into a rectangular approximately 600 μL sample coil. We have also designed a special coil for ^17O NMR that required no disk cutting. Typically, stacks of up to 40 AAO strips or disks were employed for NMR measurements. The disks have a well-aligned through-film porous structure with nanochannels directed perpendicular to the disk outer surface.
The manufacturer specifies that these nanoporous substrates have a 20-nm filtration diameter cutoff. […]
The Leu^10 carbonyl in the gramicidin A pore is one of three carbonyl sites involved in K^+ binding. We have monitored K^+ binding using the ^17O resonance of selectively labeled Leu^10 carbonyls of gramicidin A dimers incorporated into DMPC bilayers and aligned using the AAO method. […]

[3] = system: gramicidin A channel; settings: DMPC-gA aligned by glass slides, channel parallel to B0; cited from earlier work

Chain of M2 Protein from Influenza A virus (P06821 whole entry): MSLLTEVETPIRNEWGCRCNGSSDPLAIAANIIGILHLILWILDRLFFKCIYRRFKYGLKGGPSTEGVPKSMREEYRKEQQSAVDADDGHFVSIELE

| Structure (SMILES) | NMR signal changes upon binding drug (spectral shift of M2 protein) [1] | downfield shift Δδ of the 17O resonance of Leu10 carbonyl upon ion binding (δ⊥) [2] | shift of the 17O resonance at δ∥ upon K+ binding [3] |
| --- | --- | --- | --- |
| NC12CC3CC(CC(C3)C1)C2 [Amantadine] | dramatic changes |  |  |
| [Cl-].[K+] [KCl] |  | ≈ 18 ppm | 40 ppm |
